Laboratory results taken from patent US10584128B2, “Bicyclic dihydropyrimidine-carboxamide derivatives as Rho-Kinase inhibitors” (CHIESI FARMACEUTICI S.p.A., priority 2016, dated 2020).

Tests used:
Rho kinase 1 = Rho kinase 1 (Homo sapiens, UniProt Q13464); test: In vitro Rho kinase inhibitory activity assay (ADP-Glo kit, Myelin Basic Protein substrate); type: biochemical; conditions: 10 μM ATP, 25° C., read-out: ROCK1 inhibitory activity (Ki, range of activity)
Experimental: (§1) The effectiveness of compounds of the present invention to inhibit Rho kinase activity can be determined in a 10 μl assay containing 40 mM Tris pH7.5, 20 mM MgCl2 0.1 mg/ml BSA, 50 μM DTT and 2.5 μM peptide substrate (Myelin Basic Protein) using an ADP-Glo kit (Promega). Compounds were dissolved in DMSO such that the final concentration of DMSO was 1% in the assay. All reactions/incubations are performed at 25° C. Compound (2 ul) and either Rho kinase 1 or 2 (4 μl) were mixed and incubated for 30 mins. Reactions were initiated by addition of ATP (4 μl) such that the final concentration of ATP in the assay was 10 μM. After a 1 hour incubation 10 μl of ADP-Glo Reagent was added and after a further 45 minute incubation 20 ul of Kinase Detection Buffer was added and the mixture incubated for a further 30 minutes. The luminescent signal was measured on a luminometer. […] Compounds were tested in dose-response format and the inhibition of kinase activity was calculated at each concentration of compound. To determine the IC50 (concentration of compound required to inhibit 50% of the enzyme activity) data were fit to a plot of % inhibition vs Log10 compound concentration using a sigmoidal fit with a variable slope and fixing the maximum to 100% and the minimum to 0%. To determine the Ki values the Cheng-Prusoff equation was utilized (Ki=IC50/(1+[S]/Km).

Rho kinase 2 = Rho kinase 2 (Homo sapiens, UniProt O75116); test: as above; type: biochemical; conditions: 10 μM ATP, 25° C., read-out: ROCK2 inhibitory activity (Ki, range of activity)
Experimental: as §1

Sequence of Rho kinase 2 (O75116 whole entry): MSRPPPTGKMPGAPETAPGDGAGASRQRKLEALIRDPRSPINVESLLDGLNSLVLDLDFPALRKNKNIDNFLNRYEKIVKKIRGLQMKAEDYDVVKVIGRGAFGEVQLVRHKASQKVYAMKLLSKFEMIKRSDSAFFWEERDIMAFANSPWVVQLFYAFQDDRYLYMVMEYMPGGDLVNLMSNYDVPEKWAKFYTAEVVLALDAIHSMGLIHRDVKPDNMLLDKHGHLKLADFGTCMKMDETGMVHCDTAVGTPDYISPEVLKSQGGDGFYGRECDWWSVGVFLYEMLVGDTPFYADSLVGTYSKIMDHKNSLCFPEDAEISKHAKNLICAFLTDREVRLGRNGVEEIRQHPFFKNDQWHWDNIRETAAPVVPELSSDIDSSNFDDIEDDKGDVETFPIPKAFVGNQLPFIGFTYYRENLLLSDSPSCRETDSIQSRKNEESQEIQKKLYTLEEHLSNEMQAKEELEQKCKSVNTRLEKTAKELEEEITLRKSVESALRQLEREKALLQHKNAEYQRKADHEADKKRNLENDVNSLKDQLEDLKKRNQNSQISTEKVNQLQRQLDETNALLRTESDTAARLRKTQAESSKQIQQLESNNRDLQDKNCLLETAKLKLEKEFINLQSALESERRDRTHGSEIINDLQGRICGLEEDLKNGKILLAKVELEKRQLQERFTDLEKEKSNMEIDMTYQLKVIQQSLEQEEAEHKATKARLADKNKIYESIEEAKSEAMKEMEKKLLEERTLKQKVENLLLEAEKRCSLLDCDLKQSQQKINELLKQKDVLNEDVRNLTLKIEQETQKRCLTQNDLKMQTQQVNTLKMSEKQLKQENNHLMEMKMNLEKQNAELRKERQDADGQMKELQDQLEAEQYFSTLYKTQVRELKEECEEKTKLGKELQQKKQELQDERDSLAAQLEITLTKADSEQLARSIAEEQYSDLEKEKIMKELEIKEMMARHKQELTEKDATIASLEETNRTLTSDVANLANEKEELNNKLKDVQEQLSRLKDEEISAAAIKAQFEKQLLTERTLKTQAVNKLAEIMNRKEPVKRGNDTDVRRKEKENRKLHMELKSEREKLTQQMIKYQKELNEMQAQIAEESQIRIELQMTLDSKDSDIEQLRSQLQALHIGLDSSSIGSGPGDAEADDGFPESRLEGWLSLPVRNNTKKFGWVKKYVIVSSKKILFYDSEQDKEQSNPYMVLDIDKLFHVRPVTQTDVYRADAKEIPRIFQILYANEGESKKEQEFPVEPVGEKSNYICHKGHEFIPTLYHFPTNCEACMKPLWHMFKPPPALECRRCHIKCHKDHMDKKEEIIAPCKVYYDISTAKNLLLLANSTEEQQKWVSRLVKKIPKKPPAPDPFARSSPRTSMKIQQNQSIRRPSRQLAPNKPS
Sequence of Rho kinase 1 (Q13464 whole entry): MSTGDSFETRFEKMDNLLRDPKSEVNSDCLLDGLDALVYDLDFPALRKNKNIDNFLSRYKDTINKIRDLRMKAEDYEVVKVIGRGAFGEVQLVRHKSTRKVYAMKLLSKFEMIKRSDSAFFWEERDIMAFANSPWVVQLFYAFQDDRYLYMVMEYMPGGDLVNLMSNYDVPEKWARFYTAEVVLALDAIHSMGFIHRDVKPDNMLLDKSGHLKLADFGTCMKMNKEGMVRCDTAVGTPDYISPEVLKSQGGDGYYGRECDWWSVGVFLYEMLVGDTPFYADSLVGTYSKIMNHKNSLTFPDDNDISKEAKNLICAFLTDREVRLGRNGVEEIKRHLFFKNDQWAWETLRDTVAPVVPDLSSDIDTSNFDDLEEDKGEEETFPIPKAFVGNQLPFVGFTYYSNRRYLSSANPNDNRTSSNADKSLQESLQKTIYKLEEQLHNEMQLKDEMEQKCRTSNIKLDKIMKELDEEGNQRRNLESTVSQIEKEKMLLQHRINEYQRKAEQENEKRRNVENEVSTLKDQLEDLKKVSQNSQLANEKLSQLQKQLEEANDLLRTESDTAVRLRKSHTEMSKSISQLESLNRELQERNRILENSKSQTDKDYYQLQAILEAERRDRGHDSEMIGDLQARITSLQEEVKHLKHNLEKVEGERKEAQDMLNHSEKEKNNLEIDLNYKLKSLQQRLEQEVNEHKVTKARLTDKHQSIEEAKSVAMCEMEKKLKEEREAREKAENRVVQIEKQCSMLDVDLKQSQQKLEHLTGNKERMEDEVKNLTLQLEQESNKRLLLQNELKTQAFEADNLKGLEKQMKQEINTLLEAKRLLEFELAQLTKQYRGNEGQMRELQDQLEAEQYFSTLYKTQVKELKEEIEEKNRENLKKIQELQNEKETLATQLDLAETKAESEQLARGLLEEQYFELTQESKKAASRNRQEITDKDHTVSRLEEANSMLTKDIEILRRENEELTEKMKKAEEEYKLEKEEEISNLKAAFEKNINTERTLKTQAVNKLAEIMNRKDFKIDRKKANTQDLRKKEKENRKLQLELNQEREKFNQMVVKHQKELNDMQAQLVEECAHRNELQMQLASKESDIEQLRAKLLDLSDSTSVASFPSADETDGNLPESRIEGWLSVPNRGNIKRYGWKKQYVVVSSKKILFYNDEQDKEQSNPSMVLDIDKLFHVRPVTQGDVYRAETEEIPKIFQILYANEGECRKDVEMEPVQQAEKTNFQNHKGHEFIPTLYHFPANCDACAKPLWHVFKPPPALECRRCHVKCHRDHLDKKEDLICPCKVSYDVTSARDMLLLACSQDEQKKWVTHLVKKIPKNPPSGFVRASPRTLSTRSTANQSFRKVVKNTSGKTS

| Compound | Ki (Rho kinase 1) [µM] | Ki (Rho kinase 2) [µM] |
| --- | --- | --- |
| CC1=C(C(=O)Nc2ccc3cnccc3c2)C(c2ccc(C(F)(F)F)c(F)c2)n2nc(C(=O)NCCN3CCCCC3)cc2N1 (single isomer, unassigned) [77A] | > 0.5 | > 0.5 |
| CC1=C(C(=O)Nc2ccc3cnccc3c2)C(c2ccc(C(F)(F)F)c(F)c2)n2nc(C(=O)NCCN3CCCCC3)cc2N1 (single isomer, unassigned) [77B] | < 0.05 | < 0.05 |
| CC1=C(C(=O)Nc2ccc3cnccc3c2)C(c2ccc(C(F)(F)F)c(F)c2)n2nc(N)cc2N1 (single isomer, unassigned) [130B] | < 0.05 | < 0.05 |
| CC1=C(C(=O)Nc2ccc3cnccc3c2)C(c2ccc(C(F)(F)F)c(F)c2)n2nc(NC(=O)CCN3CCCCC3)cc2N1 (single isomer, unassigned) [131A] | < 0.05 | < 0.05 |
| CC1=C(C(=O)Nc2ccc3cnccc3c2)C(c2ccc(C(F)(F)F)c(F)c2)n2nc(NC(=O)CN3CCCC3)cc2N1 (single isomer, unassigned) [132A] | < 0.05 | < 0.05 |
| CC1=C(C(=O)Nc2ccc3cnccc3c2)C(c2ccc(C(F)(F)F)c(F)c2)n2nc(NC(=O)CN3CCCC3)cc2N1 (single isomer, unassigned) [132B] | > 0.5 | > 0.5 |
| CC1=C(C(=O)Nc2ccc3cnccc3c2)C(c2ccc(C(F)(F)F)c(F)c2)n2nc(C3CCN(C(=O)CCN4CCCCC4)CC3)cc2N1 (single isomer, unassigned) [135A] | > 0.5 | > 0.5 |
| CC1=C(C(=O)Nc2ccc3cnccc3c2)C(c2ccc(C(F)(F)F)c(F)c2)n2nc(C3CCN(C(=O)CCN4CCCCC4)CC3)cc2N1 (single isomer, unassigned) [135B] | < 0.05 | < 0.05 |
| CC1=C(C(=O)Nc2ccc3[nH]ncc3c2)C(c2ccc(F)cc2)n2nnnc2N1 (single isomer, unassigned) [Example 23A, 7-(4-fluorophenyl)-N-(1H-indazol-5-yl)-5-methyl-4,7-dihydrotetrazolo[1,5-a]pyrimidine-6-carboxamide] | < 0.05 | < 0.05 |
| CC1=C(C(=O)Nc2ccc3[nH]ncc3c2)C(c2ccc(F)cc2)n2nnnc2N1 (single isomer, unassigned) [Example 23B, 7-(4-fluorophenyl)-N-(1H-indazol-5-yl)-5-methyl-4,7-dihydrotetrazolo[1,5-a]pyrimidine-6-carboxamide] | 0.05 to 0.5 | 0.05 to 0.5 |
| CC1=C(C(=O)Nc2ccc3[nH]ncc3c2)C(c2ccc(Cl)cc2)n2nnnc2N1 (single isomer, unassigned) [Example 24A, 7-(4-chlorophenyl)-N-(1H-indazol-5-yl)-5-methyl-4,7-dihydrotetrazolo[1,5-a]pyrimidine-6-carboxamide] | < 0.05 | < 0.05 |
| CC1=C(C(=O)Nc2ccc3[nH]ncc3c2)C(c2ccc(C(F)(F)F)c(F)c2)n2nnnc2N1 (single isomer, unassigned) [Example 25B, 7-(3-fluoro-4-(trifluoromethyl)phenyl)-N-(1H-indazol-5-yl)-5-methyl-4,7-dihydrotetrazolo[1,5-a]pyrimidine-6-carboxamide] | 0.05 to 0.5 | 0.05 to 0.5 |
| CC1=C(C(=O)Nc2ccc3[nH]ncc3c2)C(c2ccc(C(F)(F)F)cc2F)n2nnnc2N1 (single isomer, unassigned) [Example 26A, 7-(2-fluoro-4-(trifluoromethyl)phenyl)-N-(1H-indazol-5-yl)-5-methyl-4,7-dihydrotetrazolo[1,5-a]pyrimidine-6-carboxamide] | < 0.05 | < 0.05 |
| CC1=C(C(=O)Nc2ccc3[nH]ncc3c2)C(c2ccc(C(F)(F)F)cc2F)n2nnnc2N1 (single isomer, unassigned) [Example 26B, 7-(2-fluoro-4-(trifluoromethyl)phenyl)-N-(1H-indazol-5-yl)-5-methyl-4,7-dihydrotetrazolo[1,5-a]pyrimidine-6-carboxamide] | 0.05 to 0.5 | 0.05 to 0.5 |
| CC1=C(C(=O)Nc2ccc3[nH]ncc3c2)C(c2ccc(C(F)(F)F)cc2)n2nnnc2N1 (single isomer, unassigned) [Example 27A, N-(1H-indazol-5-yl)-5-methyl-7-(4-(trifluoromethyl)phenyl)-4,7-dihydrotetrazolo[1,5-a]pyrimidine-6-carboxamide] | < 0.05 | < 0.05 |
| CC1=C(C(=O)Nc2ccc3[nH]ncc3c2)C(c2ccc(C(F)(F)F)cc2)n2nnnc2N1 (single isomer, unassigned) [Example 27B, N-(1H-indazol-5-yl)-5-methyl-7-(4-(trifluoromethyl)phenyl)-4,7-dihydrotetrazolo[1,5-a]pyrimidine-6-carboxamide] | 0.05 to 0.5 | 0.05 to 0.5 |
| CC1=C(C(=O)Nc2ccc3[nH]ncc3c2)C(c2ccc(Cl)nc2)n2nc(C(F)(F)F)cc2N1 (single isomer, unassigned) [Example 32B, 7-(6-chloropyridin-3-yl)-N-(1H-indazol-5-yl)-5-methyl-2-(trifluoromethyl)-4,7-dihydropyrazolo[1,5-a]pyrimidine-6-carboxamide] | < 0.05 | < 0.05 |
| CC1=C(C(=O)Nc2cc3cn[nH]c3cc2F)C(c2ccc(C(F)(F)F)c(F)c2)n2nnnc2N1 (single isomer, unassigned) [Example 40A, N-(6-fluoro-1H-indazol-5-yl)-7-(3-fluoro-4-(trifluoromethyl)phenyl)-5-methyl-4,7-dihydrotetrazolo[1,5-a]pyrimidine-6-carboxamide] | < 0.05 | < 0.05 |

The next lines start with the values.

| Ki (Rho kinase 1) [µM] | Ki (Rho kinase 2) [µM] | Compound |
| --- | --- | --- |
| > 0.5 | > 0.5 | CC1=C(C(=O)Nc2ccc3cnccc3c2)C(c2ccc(C(F)(F)F)c(F)c2)n2nc(N)cc2N1 (single isomer, unassigned) [130A] |
| – | < 0.05 | CC1=C(C(=O)Nc2ccc3cnccc3c2)C(c2ccc(C(F)(F)F)c(F)c2)n2nc(NC(=O)CCN3CCCCC3)cc2N1 (single isomer, unassigned) [131B] |
| > 0.5 | > 0.5 | CCOC(=O)c1cc2n(n1)C(c1ccc(F)cc1)C(C(=O)Nc1ccc3[nH]ncc3c1)=C(C)N2 (single isomer, unassigned) [Example 4A, ethyl 6-((1H-indazol-5-yl)carbamoyl)-7-(4-fluorophenyl)-5-methyl-4,7-dihydropyrazolo[1,5-a]pyrimidine-2-carboxylate] |
| < 0.05 | < 0.05 | CCOC(=O)c1cc2n(n1)C(c1ccc(F)cc1)C(C(=O)Nc1ccc3[nH]ncc3c1)=C(C)N2 (single isomer, unassigned) [Example 4B, ethyl 6-((1H-indazol-5-yl)carbamoyl)-7-(4-fluorophenyl)-5-methyl-4,7-dihydropyrazolo[1,5-a]pyrimidine-2-carboxylate] |
| < 0.05 | < 0.05 | CCOC(=O)c1cc2n(n1)C(c1ccc(Cl)cc1F)C(C(=O)Nc1ccc3[nH]ncc3c1)=C(C)N2 (single isomer, unassigned) [Example 7A, ethyl 6-((1H-indazol-5-yl)carbamoyl)-7-(4-chloro-2-fluorophenyl)-5-methyl-4,7-dihydropyrazolo[1,5-a]pyrimidine-2-carboxylate] |
| < 0.05 | < 0.05 | CCOC(=O)c1cc2n(n1)C(c1ccc(Cl)cc1F)C(C(=O)Nc1ccc3[nH]ncc3c1)=C(C)N2 (single isomer, unassigned) [Example 7B, ethyl 6-((1H-indazol-5-yl)carbamoyl)-7-(4-chloro-2-fluorophenyl)-5-methyl-4,7-dihydropyrazolo[1,5-a]pyrimidine-2-carboxylate] |
| 0.05 to 0.5 | 0.05 to 0.5 | CC1=C(C(=O)Nc2ccc3[nH]ncc3c2)C(c2ccc(Cl)cc2)n2nnnc2N1 (single isomer, unassigned) [Example 24B, 7-(4-chlorophenyl)-N-(1H-indazol-5-yl)-5-methyl-4,7-dihydrotetrazolo[1,5-a]pyrimidine-6-carboxamide] |
| < 0.05 | < 0.05 | CC1=C(C(=O)Nc2ccc3[nH]ncc3c2)C(c2ccc(C(F)(F)F)c(F)c2)n2nnnc2N1 (single isomer, unassigned) [Example 25A, 7-(3-fluoro-4-(trifluoromethyl)phenyl)-N-(1H-indazol-5-yl)-5-methyl-4,7-dihydrotetrazolo[1,5-a]pyrimidine-6-carboxamide] |
| > 0.5 | > 0.5 | CC1=C(C(=O)Nc2ccc3[nH]ncc3c2)C(c2ccc(Cl)nc2)n2nc(C(F)(F)F)cc2N1 (single isomer, unassigned) [Example 32A, 7-(6-chloropyridin-3-yl)-N-(1H-indazol-5-yl)-5-methyl-2-(trifluoromethyl)-4,7-dihydropyrazolo[1,5-a]pyrimidine-6-carboxamide] |
| < 0.05 | – | CC1=C(C(=O)Nc2ccc3cnccc3c2)C(c2ccc(C(F)(F)F)c(F)c2)n2nc(C(=O)NCCN3CCCCC3)nc2N1 (single isomer, unassigned) [Example 129b, 7-(3-fluoro-4-(trifluoromethyl)phenyl)-N6-(isoquinolin-6-yl)-5-methyl-N2-(2-(piperidin-1-yl)ethyl)-4,7-dihydro-[1,2,4]triazolo[1,5-a]pyrimidine-2,6-dicarboxamide] |
